Assay results published in paper PMC10495264 (Nature Cell Biology, 2023).
“Also recorded” adds a separate entry of the source.

What was measured:
mTORC1 [1] = target: T1, mTORC1 (Homo sapiens, UniProt P42345); experiment: mTORC1 complex stability/composition, mTOR co-immunoprecipitation of Raptor and mLST8; conditions: 1 mM Mal-CoA added to cell lysates before immunoprecipitation
T1 construct: endogenous mTORC1 complexes were purified from HEK293FT cells; endogenous in cells; host or cells: HEK293FT (immunoprecipitation of endogenous mTOR); the 4E-BP1 substrate was made in E. coli BL21 RP
Experimental: For the mammalian endogenous protein co-immunoprecipitation experiments, cells of a near-confluent 10-cm dish were lysed in CHAPS IP buffer (50 mM Tris pH 7.5, 0.3% CHAPS detergent, 150 mM NaCl, 50 mM NaF, 2 mM Na-vanadate and 0.011 g ml^−1 β-glycerophosphate) supplemented with 1×PhosSTOP phosphatase inhibitors and 1×EDTA-free cOmplete protease inhibitors (11873580001, Roche) for 10 min on ice. The samples were clarified by centrifugation (20,000g, 15 min, 4 °C) and the supernatants were subjected to immunoprecipitation by the addition of 3 μl of each antibody, incubation at 4 °C with rotation for 3 h, followed by incubation (4 °C with rotation) with 30 μl of a pre-washed Protein A agarose bead slurry (cat. no. 11134515001, Roche) for an additional hour. The beads were then washed four times with CHAPS IP wash buffer (50 mM Tris pH 7.5, 0.3% CHAPS detergent, 150 mM NaCl and 50 mM NaF) and boiled in 1×SDS loading buffer. A portion of the samples was kept aside as the input before the addition of antibodies. The samples were analysed by SDS–PAGE and the presence of co-immunoprecipitated proteins was detected by immunoblotting with the appropriate specific antibodies.
To test whether Mal-CoA influences mTORC1 complex stability/composition, 1 mM Mal-CoA lithium salt solution was added to the lysates before the immunoprecipitation of mTOR, as described earlier. […]

mTORC1 [2] = experiment: mTORC1 activity in HEK293FT cells (WT and knockout lines), phosphorylation of S6K, 4E-BP1, Grb10, TFEB by immunoblot; type: cell-based, human
Experimental: Data represent the median fluorescence intensity of OPP Alexa Fluor 488; n = 6 biological replicates from two independent experiments. b,c,e,g,i,k,l, Data are the mean ± s.e.m. *P < 0.05, **P < 0.005, ***P < 0.0005. […] Source numerical data and unprocessed blots are provided. Source data
Amino-acid-starvation experiments were carried out as described before[42],[43]. […] For the lipid depletion experiments, cells were cultured in medium containing 10% charcoal-stripped FBS (A3382101, Thermo Fisher Scientific), instead of full FBS, for 24 h before treatments with FASN inhibitors were performed. For FA supplementation, each FA was first conjugated to 10% FA-free BSA (fraction V; cat. no. 10735086001, Roche) for 1 h at 50 °C in a 50:50 volumetric ratio. The BSA-conjugated C16:0, C16:1, C18:1 and C18:2 FAs (100 μM) were then added to the media both 16 h previous to and at the start of the treatment with FASN inhibitors.
For standard SDS–PAGE and immunoblotting experiments, cells from a well of a 12-well plate were lysed in 250 μl of ice-cold Triton lysis buffer (50 mM Tris pH 7.5, 1% Triton X-100, 150 mM NaCl, 50 mM NaF, 2 mM Na-vanadate and 0.011 g ml^−1 β-glycerophosphate) supplemented with 1×PhosSTOP phosphatase inhibitors (cat. no. 4906837001, Roche) and 1×cOmplete protease inhibitors (cat. no. 11836153001, Roche) for 10 min on ice. The samples were clarified by centrifugation (20,000g, 15 min, 4 °C) and the supernatants were boiled in 1×SDS sample buffer (5×SDS sample buffer: 350 mM Tris–HCl pH 6.8, 30% glycerol, 600 mM DTT, 12.8% SDS and 0.12% bromophenol blue). The band intensities were quantified using the ImageJ software.

Structure (SMILES): CC(C)(COP(=O)(O)OP(=O)(O)OCC1OC(n2cnc3c(N)ncnc32)C(O)C1OP(=O)(O)O)C(O)C(=O)NCCC(=O)NCCSC(=O)CC(=O)O (stereo not drawn) [Mal-CoA, malonyl-CoA]
- mTORC1 stability (interaction of mTOR with Raptor and mLST8) (mTORC1 [1]): did not influence
- p-S6K(T389)/S6K, Mean (mTORC1 [2]; ED Fig. 4n, relative to DMSO): 0.5757
- mTORC1 activity after exogenous addition of Mal-CoA (mTORC1 [2]; HEK293FT, 250 μM Mal-CoA in medium, 30 min): significant drop; also recorded: capable of downregulating
